Reference: the NIST ThermoML archive (doi:10.1021/je100190e)

Test: mn = molality of the nth substance listed, in mol/kg
Conditions: 101 kPa, Liquid

CC(=O)[O-].[K+] [potassium ethanoate] + O
m1 = 1
Conditions | mass density [kg/m3]
303.15 K | 1039.7
308.15 K | 1038.1
313.15 K | 1036.1
318.15 K | 1033.5
323.15 K | 1032

O [water] + Cl.NCCCC[C@H](N)C(=O)O
Conditions | mass density [kg/m3]
323.15 K, m2 = 0 | 988

O [water] + N[C@@H](Cc1c[nH]cn1)C(=O)O
Conditions | mass density [kg/m3]
323.15 K, m2 = 0 | 988

CC(=O)[O-].[Na+] [sodium ethanoate] + O
m1 = 1
Conditions | mass density [kg/m3]
303.15 K | 1032.9
308.15 K | 1031.8
313.15 K | 1029.3
318.15 K | 1027.5
323.15 K | 1025.4

CC(=O)[O-].CC(=O)[O-].[Ca+2] [calcium acetate] + O
m1 = 1
Conditions | mass density [kg/m3]
303.15 K | 1075.1
308.15 K | 1073.2
313.15 K | 1071.6
318.15 K | 1069.3
323.15 K | 1067.1

Cl.NCCCC[C@H](N)C(=O)O [L-lysine monohydrochloride] + O
mass density [kg/m3]
Conditions | 303.15 K | 308.15 K | 313.15 K | 318.15 K | 323.15 K
m1 = 0.0302 | 997.3 | 995.7 | 993.9 | 991.9 | 989.7
m1 = 0.0606 | 999 | 997.4 | 995.6 | 993.6 | 991.4
m1 = 0.0913 | 1000.7 | 999.1 | 997.3 | 995.3 | 993.1
m1 = 0.1224 | 1002.4 | 1000.8 | 999 | 997 | 994.8
m1 = 0.1536 | 1004.1 | 1002.5 | 1000.7 | 998.7 | 996.4

N=C(N)NCCC[C@H](N)C(=O)O [L-arginine] + O
mass density [kg/m3]
Conditions | 303.15 K | 308.15 K | 313.15 K | 318.15 K | 323.15 K
m1 = 0.0302 | 997.1 | 995.5 | 993.7 | 991.7 | 989.5
m1 = 0.0607 | 998.6 | 997 | 995.2 | 993.2 | 991
m1 = 0.0914 | 1000.1 | 998.5 | 996.7 | 994.7 | 992.5
m1 = 0.122 | 1001.5 | 999.9 | 998.1 | 996.1 | 993.9
m1 = 0.1533 | 1003 | 1001.4 | 999.6 | 997.6 | 995.4

O [water] + N=C(N)NCCC[C@H](N)C(=O)O
Conditions | mass density [kg/m3]
323.15 K, m2 = 0 | 988

N[C@@H](Cc1c[nH]cn1)C(=O)O [L-histidine] + O
mass density [kg/m3]
Conditions | 303.15 K | 308.15 K | 313.15 K | 318.15 K | 323.15 K
m1 = 0.0303 | 997.3 | 995.7 | 993.9 | 991.9 | 989.7
m1 = 0.0606 | 998.9 | 997.3 | 995.5 | 993.5 | 991.3
m1 = 0.0913 | 1000.6 | 999 | 997.2 | 995.2 | 993
m1 = 0.1221 | 1002.2 | 1000.6 | 998.8 | 996.8 | 994.6
m1 = 0.1526 | 1003.8 | 1002.2 | 1000.4 | 998.4 | 996.2
